Earlier results in patent US4127536A, “Novel tricosapeptides, intermediates therefor and pharmaceutical compositions and methods employing said tricosapeptides” (priority 1977, dated 1978).

Tests used:
[1] = system: partially purified brain opiate receptor sites; conditions: natural peptide
rat = conditions: injected directly into the brain of the rat

Substance: H-Tyr-Gly-Gly-Phe-Met-OH [methionine enkephalin]
- binding to partially purified brain opiate receptor sites [1]: binds stereo-specifically
- analgesic activity (rat): only weak analgesic agent of short duration
